# Experimental data as given in ChEMBL document CHEMBL1743341, “Cytochrome p450 enzymes mechanism based inhibitors: common sub-structures and reactivity” (Curr Drug Metab, 2005).
# Several values for one entry are separate records, joined by “and”; a condition that tells them apart may be missing. Equal values may be shown once.
# Assays:
# Cytochrome P450 2B6 [1] = molecular target: T1, Cytochrome P450 2B6 (Homo sapiens, UniProt P20813); assay: Mechanism based inhibition of human cytochrome P450 2B6, partition ratio (value refers to P450 expressed in baculovirus infected insect cells); type: ADME
# T1 sequence (P20813 whole entry): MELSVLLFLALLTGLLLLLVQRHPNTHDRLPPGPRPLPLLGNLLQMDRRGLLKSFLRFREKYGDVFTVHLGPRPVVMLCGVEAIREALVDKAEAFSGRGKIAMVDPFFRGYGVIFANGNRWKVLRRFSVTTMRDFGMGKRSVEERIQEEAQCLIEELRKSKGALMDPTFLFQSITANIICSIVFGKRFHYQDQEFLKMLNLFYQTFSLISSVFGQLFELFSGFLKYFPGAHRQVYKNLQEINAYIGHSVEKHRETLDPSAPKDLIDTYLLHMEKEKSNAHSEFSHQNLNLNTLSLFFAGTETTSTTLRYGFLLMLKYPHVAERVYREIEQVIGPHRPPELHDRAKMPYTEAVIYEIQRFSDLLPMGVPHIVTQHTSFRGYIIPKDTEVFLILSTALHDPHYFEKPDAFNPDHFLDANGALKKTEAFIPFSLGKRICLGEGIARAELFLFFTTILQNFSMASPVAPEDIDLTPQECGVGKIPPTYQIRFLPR
# CYP2A6 [2] = molecular target: T2, CYP2A6 (Homo sapiens, UniProt P11509); assay: (§1) Mechanism based inhibition of human cytochrome P450 2A6 measured by coumarin 7-hydroxylation; type: ADME; settings: human, probe coumarin (7-hydroxylation)
# T2 sequence (P11509 whole entry): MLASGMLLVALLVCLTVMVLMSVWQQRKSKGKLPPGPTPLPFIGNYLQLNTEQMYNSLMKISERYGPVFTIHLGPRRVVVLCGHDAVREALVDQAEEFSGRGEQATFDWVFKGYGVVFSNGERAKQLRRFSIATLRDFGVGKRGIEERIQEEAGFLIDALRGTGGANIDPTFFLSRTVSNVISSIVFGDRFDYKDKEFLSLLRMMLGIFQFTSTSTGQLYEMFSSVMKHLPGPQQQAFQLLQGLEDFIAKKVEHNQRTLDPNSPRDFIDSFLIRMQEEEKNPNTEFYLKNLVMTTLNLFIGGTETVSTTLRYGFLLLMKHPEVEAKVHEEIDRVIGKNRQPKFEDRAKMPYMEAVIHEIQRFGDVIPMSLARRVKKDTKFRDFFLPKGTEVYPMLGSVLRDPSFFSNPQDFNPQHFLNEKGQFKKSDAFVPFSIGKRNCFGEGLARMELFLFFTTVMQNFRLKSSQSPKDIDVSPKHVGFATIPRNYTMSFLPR
# Cytochrome P450 2A6 [3] = molecular target: T3, Cytochrome P450 2A6 (Homo sapiens, UniProt P11509); assay: as §1; type: ADME
# T3 sequence (P11509 whole entry): T2 sequence (P11509 whole entry)
# Cytochrome P450 3A4 [4] = molecular target: T4, Cytochrome P450 3A4 (Homo sapiens, UniProt P08684); assay: (§2) Mechanism based inhibition of human cytochrome P450 3A4 measured by testosterone 6-beta hydroxylation; type: ADME
# T4 sequence (P08684 whole entry): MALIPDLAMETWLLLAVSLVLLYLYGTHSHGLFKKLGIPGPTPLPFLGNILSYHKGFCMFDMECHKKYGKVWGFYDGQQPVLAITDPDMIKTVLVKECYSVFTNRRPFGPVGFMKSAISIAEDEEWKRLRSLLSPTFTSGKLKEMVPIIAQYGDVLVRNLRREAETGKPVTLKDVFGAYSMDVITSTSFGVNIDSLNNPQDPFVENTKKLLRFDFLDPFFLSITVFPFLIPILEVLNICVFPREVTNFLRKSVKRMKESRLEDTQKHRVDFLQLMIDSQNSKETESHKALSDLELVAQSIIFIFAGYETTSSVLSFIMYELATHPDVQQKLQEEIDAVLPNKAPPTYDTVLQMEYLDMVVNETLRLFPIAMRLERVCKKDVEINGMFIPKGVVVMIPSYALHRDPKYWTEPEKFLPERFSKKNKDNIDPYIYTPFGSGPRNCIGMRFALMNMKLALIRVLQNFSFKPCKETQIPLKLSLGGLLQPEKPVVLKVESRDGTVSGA
# CYP3A4 [5] = molecular target: T5, CYP3A4 (Homo sapiens, UniProt P08684); assay: as §2; type: ADME; settings: human, probe testosterone (6-beta hydroxylation)
# T5 sequence (P08684 whole entry): as above
# Cytochrome P450 3A4 [6] = molecular target: T4, Cytochrome P450 3A4; assay: (§3) Mechanism based inhibition of human cytochrome P450 3A4 measured by midazolam 1'-hydroxylation; type: ADME
# CYP3A4 [7] = molecular target: T5, CYP3A4; assay: as §3; type: ADME; settings: probe midazolam (1'-hydroxylation)
# CYP3A4 [8] = molecular target: T5, CYP3A4; assay: Mechanism based inhibition of human cytochrome P450 3A4 measured by triazolam alpha- hydroxylation using recombinant CYP3A4; type: ADME; settings: recombinant CYP3A4, probe triazolam (alpha-hydroxylation)
# CYP3A4 [9] = molecular target: T5, CYP3A4; assay: Mechanism based inhibition of human cytochrome P450 3A4 measured by triazolam 4- hydroxylation using recombinant CYP3A4; type: ADME; settings: recombinant CYP3A4, probe triazolam (4-hydroxylation)
# CYP3A4 [10] = molecular target: T5, CYP3A4; assay: Mechanism based inhibition of human cytochrome P450 3A4 measured by triazolam alpha- hydroxylation using human liver microsomes; type: ADME, Microsome; settings: probe triazolam (alpha-hydroxylation)
# CYP3A4 [11] = molecular target: T5, CYP3A4; assay: Mechanism based inhibition of human cytochrome P450 3A4 measured by triazolam 4- hydroxylation using human liver microsomes; type: ADME, Microsome; settings: probe triazolam (4-hydroxylation)
# Cytochrome P450 2B1 = molecular target: T6, Cytochrome P450 2B1 (Rattus norvegicus, UniProt P00176); assay: Mechanism based inhibition of rat cytochrome P450 2B1 measured by 7-EFC O-deethylation
# T6 sequence (P00176 whole entry): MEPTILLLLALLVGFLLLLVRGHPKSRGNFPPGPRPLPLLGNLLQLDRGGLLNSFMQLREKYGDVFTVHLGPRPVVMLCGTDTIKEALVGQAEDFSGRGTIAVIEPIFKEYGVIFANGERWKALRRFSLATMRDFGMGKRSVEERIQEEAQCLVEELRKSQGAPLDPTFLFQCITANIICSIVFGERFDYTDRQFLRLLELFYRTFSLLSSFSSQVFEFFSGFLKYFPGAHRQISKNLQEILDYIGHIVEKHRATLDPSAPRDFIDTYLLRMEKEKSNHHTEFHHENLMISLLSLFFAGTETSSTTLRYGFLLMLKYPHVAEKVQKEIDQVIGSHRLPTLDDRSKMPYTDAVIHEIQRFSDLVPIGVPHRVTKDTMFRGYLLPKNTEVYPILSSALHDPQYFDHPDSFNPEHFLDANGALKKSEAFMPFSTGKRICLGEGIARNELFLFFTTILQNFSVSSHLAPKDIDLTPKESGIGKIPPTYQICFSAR
# Cytochrome P450 3A4 [12] = molecular target: T4, Cytochrome P450 3A4; assay: Mechanism based inhibition of human cytochrome P450 3A4 measured by midazolam hydroxylation in vivo; type: ADME, organism-based
# Cytochrome P450 2B6 [13] = molecular target: T1, Cytochrome P450 2B6; assay: (§4) Mechanism based inhibition of human cytochrome P450 2B6 measured by 7-EFC O-deethylation
# Cytochrome P450 2B6 [14] = molecular target: T1, Cytochrome P450 2B6; assay: as §4; remark: listed apart in the source
# Cytochrome P450 3A4 [15] = molecular target: T4, Cytochrome P450 3A4; assay: (§5) Mechanism based inhibition of human cytochrome P450 3A4 measured by N-demethylation of erythromycin; type: ADME
# CYP3A4 [16] = molecular target: T5, CYP3A4; assay: as §5; type: ADME; settings: human, probe erythromycin (N-demethylation)
# CYP2A6 [17] = molecular target: T2, CYP2A6; assay: (§6) Mechanism based inhibition of human cytochrome P450 2A6 measured by coumarin 7-hxdroxylation using purified P450; type: ADME; settings: human, purified CYP2A6, probe coumarin (7-hydroxylation)
# Cytochrome P450 2A6 [18] = molecular target: T3, Cytochrome P450 2A6; assay: as §6; type: ADME
# Cytochrome P450 2A6 [19] = molecular target: T3, Cytochrome P450 2A6; assay: Mechanism based inhibition of human cytochrome P450 2A6, partition ratio; type: ADME
# CYP2A6 [20] = molecular target: T2, CYP2A6; assay: (§7) Mechanism based inhibition of human cytochrome P450 2A6 measured by coumarin 7-hydroxylation using human liver microsomes; type: ADME, Microsome; settings: human, human liver microsomes, probe coumarin
# Cytochrome P450 2A6 [21] = molecular target: T3, Cytochrome P450 2A6; assay: as §7; type: ADME, Microsome
# Cytochrome P450 3A4 [22] = molecular target: T4, Cytochrome P450 3A4; assay: Mechanism based inhibition of human cytochrome P450 3A4 measured by testosterone 6-beta hydroxylation and midazolam 1'-hydroxylation; type: ADME
# Cytochrome P450 3A5 = Cytochrome P450 3A5 (Homo sapiens, UniProt P20815); assay: (§8) Mechanism based inhibition of human cytochrome P450 3A5 using expressed CYP3A5 cDNA; type: ADME
# Sequence of Cytochrome P450 3A5 (P20815 whole entry): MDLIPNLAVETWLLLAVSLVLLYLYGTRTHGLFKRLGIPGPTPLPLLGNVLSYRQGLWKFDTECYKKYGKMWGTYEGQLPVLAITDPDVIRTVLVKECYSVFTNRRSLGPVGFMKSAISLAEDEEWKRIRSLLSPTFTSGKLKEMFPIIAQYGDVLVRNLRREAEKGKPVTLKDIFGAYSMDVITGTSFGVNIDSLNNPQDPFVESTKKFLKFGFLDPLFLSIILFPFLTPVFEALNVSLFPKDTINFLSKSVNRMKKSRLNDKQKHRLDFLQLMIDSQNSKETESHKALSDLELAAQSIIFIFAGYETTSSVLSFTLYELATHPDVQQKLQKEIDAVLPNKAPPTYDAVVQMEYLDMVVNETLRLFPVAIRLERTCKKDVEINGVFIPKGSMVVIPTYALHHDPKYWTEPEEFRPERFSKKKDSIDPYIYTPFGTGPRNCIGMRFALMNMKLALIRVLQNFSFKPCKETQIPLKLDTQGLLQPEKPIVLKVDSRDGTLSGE
# CYP3A5 = CYP3A5 (Homo sapiens, UniProt P20815); assay: as §8; type: ADME; settings: human, cDNA-expressed CYP3A5
# Sequence of CYP3A5 (P20815 whole entry): as above
# Cytochrome P450 3A4 [23] = molecular target: T4, Cytochrome P450 3A4; assay: (§9) Mechanism based inhibition of human cytochrome P450 3A4 using expressed CYP3A4 cDNA; type: ADME
# CYP3A4 [24] = molecular target: T5, CYP3A4; assay: as §9; type: ADME; settings: human, cDNA-expressed CYP3A4
# Cytochrome P450 3A4 [25] = molecular target: T4, Cytochrome P450 3A4; assay: (§10) Mechanism based inhibition of human cytochrome P450 3A4 measured by testosterone 6-beta hydroxylation using a recombinant system; type: ADME
# CYP3A4 [26] = molecular target: T5, CYP3A4; assay: as §10; type: ADME; settings: human, recombinant CYP3A4 system, probe testosterone (6-beta hydroxylation)
# Cytochrome P450 3A4 [27] = molecular target: T4, Cytochrome P450 3A4; assay: (§11) Mechanism based inhibition of human cytochrome P450 3A4 measured by testosterone 6-beta hydroxylation using human liver microsomes; type: ADME, Microsome
# CYP3A4 [28] = molecular target: T5, CYP3A4; assay: as §11; type: ADME, Microsome; settings: human, liver microsomes, probe testosterone (6-beta hydroxylation)
# Cytochrome P450 2B6 [29] = molecular target: T1, Cytochrome P450 2B6; assay: Mechanism based inhibition of human cytochrome P450 2B6, partition ratio (value refers to P450 expressed in lymphoblastoid cells); type: ADME, cell-based
smiles,measurement,setting,value
COc1c2ccoc2cc2oc(=O)ccc12 [BERGAPTEN],Partition ratio,Cytochrome P450 2B6 [1],57.4
same,kinact,CYP2A6 [2],0.006 s⁻¹
same,Ki,Cytochrome P450 2A6 [3],12 µM
CC/C(=C(\c1ccccc1)c1ccc(OCCN)cc1)c1ccccc1 [DESMETHYL TAMOXIFEN],Ki,Cytochrome P450 3A4 [4],2.6 µM
same,kinact,CYP3A4 [5],0.00133 s⁻¹
same,Ki,Cytochrome P450 3A4 [6],12 µM
same,kinact,CYP3A4 [7],0.00217 s⁻¹
CC[C@H]1OC(=O)[C@H](C)[C@@H](O[C@H]2C[C@@](C)(OC)[C@@H](O)[C@H](C)O2)[C@H](C)[C@@H](O[C@@H]2O[C@H](C)C[C@H](N(C)C)[C@H]2O)[C@](C)(O)C[C@@H](C)C(=O)[C@H](C)[C@@H](O)[C@]1(C)O [ERYTHROMYCIN],kinact,CYP3A4 [8],0.00288 s⁻¹
same,mechanism based inhibition,Cytochrome P450 3A4 [4],Cytochrome P450 mechanistic inhibitor: PMID 9806945
same,kinact,CYP3A4 [9],0.00162 s⁻¹
same,kinact,CYP3A4 [10],0.00103 s⁻¹
same,kinact,CYP3A4 [11],0.000917 s⁻¹
C#C[C@]1(O)CC[C@H]2[C@@H]3CCc4cc(O)ccc4[C@H]3CC[C@@]21C [ETHINYL ESTRADIOL],Ki,Cytochrome P450 2B1,11 µM
same,mechanism based inhibition,Cytochrome P450 3A4 [12],Cytochrome P450 mechanistic inhibitor: PMID 11012556
same,Ki,Cytochrome P450 2B6 [13],0.9 µM
same,Ki,Cytochrome P450 2B6 [14],0.8 µM
COc1cc2c(c(OC)c1OC)-c1c(cc3c(c1OC)OCO3)C[C@H](C)[C@](C)(O)[C@H]2OC(=O)c1ccccc1 [GOMISIN C],Ki,Cytochrome P450 3A4 [15],0.399 µM
same,kinact,CYP3A4 [16],0.00153 s⁻¹
Cc1coc2c1CCC(C)C2 (stereo not given) [MENTHOFURAN],kinact,CYP2A6 [17],0.00417 s⁻¹
same,Ki,Cytochrome P450 2A6 [18],0.84 µM
same,Partition ratio,Cytochrome P450 2A6 [19],3.5
same,kinact,CYP2A6 [20],0.00367 s⁻¹
same,Ki,Cytochrome P450 2A6 [21],2.5 µM
COCC(=O)O[C@]1(CCN(C)CCCc2nc3ccccc3[nH]2)CCc2cc(F)ccc2[C@@H]1C(C)C [MIBEFRADIL],mechanism based inhibition,Cytochrome P450 3A4 [22],Cytochrome P450 mechanistic inhibitor: PMID 10640508
COc1ccc(CCNCCCC(C#N)(c2ccc(OC)c(OC)c2)C(C)C)cc1OC (stereo not given) [NORVERAPAMIL],Ki,Cytochrome P450 3A5,4.53 µM
same,kinact,CYP3A5,0.00117 s⁻¹
same,Ki,Cytochrome P450 3A4 [23],10.3 µM
same,kinact,CYP3A4 [24],0.005 s⁻¹
same,Ki,Cytochrome P450 3A4 [25],5.89 µM
same,kinact,CYP3A4 [26],0.0187 s⁻¹
same,Ki,Cytochrome P450 3A4 [27],2.11 µM
same,kinact,CYP3A4 [28],0.0035 s⁻¹
O=c1ccc2cc3ccoc3cc2o1 [PSORALEN],Partition ratio,Cytochrome P450 2B6 [29],46 and 71.2
same,kinact,CYP2A6 [2],0.005 s⁻¹
same,Ki,Cytochrome P450 2A6 [3],0.6 µM
